The values that follow come from PubChem BioAssay (NCI).

Test systems include PC-3 prostate; NCI-H522 lung; RPMI-8226 leukemia; SF-268 CNS; SK-MEL-2 melanoma; MDA-MB-231 breast; CCRF-CEM leukemia; SNB-75 CNS; K-562 leukemia; BT-549 breast.
Holding throughout (experiment): NCI tumour cell line growth inhibition, 48 h

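1) Cells in 96-well plates. 2) Compound, 48 h, 5 concentrations. 3) Linear interpolation between surrounding doses. 4) Unreached endpoint = highest concentration. TGI marks complete inhibition of growth.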

Turning to `C/C(=N\O)c1cccc[n+]1Cc1ccccc1`, the TGI with PC-3 prostate, in the assay with NCI-H522 lung, in the assay on RPMI-8226 leukemia, in the assay with SF-268 CNS, with SK-MEL-2 melanoma and with MDA-MB-231 breast was above 100 µM throughout. Further, the TGI with CCRF-CEM leukemia, in the assay with SNB-75 CNS, in the assay on K-562 leukemia and in the assay on BT-549 breast was above 100 µM in each case.
Regarding `COc1ccccc1C(=O)NCC1CCCN2CCCCC12` (centres undefined), the TGI in the assay on PC-3 prostate, in the assay with NCI-H522 lung, in the assay with RPMI-8226 leukemia, with SF-268 CNS, in the assay with SK-MEL-2 melanoma and in the assay on MDA-MB-231 breast was above 100 µM in each case. In addition, the TGI in the assay with CCRF-CEM leukemia, in the assay on SNB-75 CNS, in the assay on K-562 leukemia and in the assay with BT-549 breast was above 100 µM in each case.
With `O=c1[nH]c(NCc2ccc(Cl)cc2)nc2nc[nH]c12`, the TGI with PC-3 prostate, in the assay with NCI-H522 lung, in the assay with RPMI-8226 leukemia, in the assay with SF-268 CNS, with SK-MEL-2 melanoma and in the assay on MDA-MB-231 breast was above 100 µM in each case. Moreover, the TGI in the assay with CCRF-CEM leukemia, in the assay on SNB-75 CNS, in the assay with K-562 leukemia and with BT-549 breast was above 100 µM each time.
For `Cc1nc2sc(C(=O)c3ccc(Cl)cc3)c(N)c2c(-c2ccccc2Cl)c1C(=O)Nc1ccccc1`, the TGI in the assay with PC-3 prostate is 47 µM; in the assay on NCI-H522 lung it was 25.1 µM; with RPMI-8226 leukemia it was 62.2 µM; with SF-268 CNS, above 94.9 µM; with SK-MEL-2 melanoma, 32.8 µM; with MDA-MB-231 breast, 34.6 µM. The TGI was 19.9 µM with CCRF-CEM leukemia, 29.7 µM with SNB-75 CNS, above 51.8 µM in the assay on K-562 leukemia and 48 µM with BT-549 breast.
On to `O=C1CSC(c2ccc(Cl)cc2Cl)N1c1ccc(Oc2ccc(Cl)cc2)c(Cl)c1` (centres undefined), for which the TGI in the assay with PC-3 prostate was above 100 µM; with NCI-H522 lung, 31.5 µM; in the assay with RPMI-8226 leukemia, 68.3 µM; in the assay with SF-268 CNS, 51.1 µM; in the assay with SK-MEL-2 melanoma, 72.7 µM; with MDA-MB-231 breast, 45.2 µM. For the same compound, the TGI in the assay with CCRF-CEM leukemia is 61.3 µM; in the assay on SNB-75 CNS, 60 µM; in the assay on K-562 leukemia, above 100 µM; in the assay with BT-549 breast, 68.2 µM.
Regarding `C(#CP(c1ccccc1)c1ccccc1)P(C#CP(c1ccccc1)c1ccccc1)c1ccccc1`, the TGI with PC-3 prostate, with NCI-H522 lung, with RPMI-8226 leukemia, in the assay on SF-268 CNS, in the assay on SK-MEL-2 melanoma and in the assay on MDA-MB-231 breast was above 100 µM in each case. In addition, the TGI with CCRF-CEM leukemia, in the assay on SNB-75 CNS, in the assay with K-562 leukemia and in the assay with BT-549 breast was above 100 µM each time.
For `COc1ccccc1C1(c2c(OC)c(=O)c2=O)SCCCS1`, the TGI in the assay on PC-3 prostate, in the assay with NCI-H522 lung, in the assay with RPMI-8226 leukemia, in the assay on SF-268 CNS, in the assay with SK-MEL-2 melanoma and with MDA-MB-231 breast was above 100 µM throughout. In addition, the TGI in the assay with CCRF-CEM leukemia, in the assay with SNB-75 CNS, with K-562 leukemia and with BT-549 breast was above 100 µM throughout.
In the case of `O=C(/C(=C\I)c1ccccc1)c1ccccc1`, the TGI in the assay with PC-3 prostate was 7.38 µM; in the assay with NCI-H522 lung, 22.5 µM; in the assay on RPMI-8226 leukemia it was above 21.2 µM; with SF-268 CNS, above 46.2 µM; in the assay on SK-MEL-2 melanoma, 21.4 µM; in the assay on MDA-MB-231 breast, 17.4 µM. The TGI is 54 µM in the assay with CCRF-CEM leukemia, above 39.5 µM in the assay on SNB-75 CNS, 26.7 µM in the assay with K-562 leukemia and 30.3 µM in the assay on BT-549 breast.
In the case of `C=C1C(=O)O[C@H]2C[C@@H]1[C@@H](O)[C@H](O)[C@@H](C)CCCC(C)=CCC[C@@]2(C)O`, the TGI in the assay on PC-3 prostate worked out at 43.9 µM; in the assay with NCI-H522 lung it was 33.9 µM; in the assay with RPMI-8226 leukemia, 45.3 µM; in the assay with SF-268 CNS, 73 µM; in the assay with SK-MEL-2 melanoma, 41.2 µM; with MDA-MB-231 breast, 84.4 µM. The TGI with CCRF-CEM leukemia was above 100 µM; with SNB-75 CNS it was above 100 µM; with K-562 leukemia, above 100 µM; in the assay with BT-549 breast, 25.9 µM.
Turning to `C=C(Cl)C(Cl)(CCl)CCC(Br)C(C)(C)Br` (centres undefined), the TGI with PC-3 prostate, in the assay with NCI-H522 lung, in the assay with RPMI-8226 leukemia, in the assay on SF-268 CNS, in the assay on SK-MEL-2 melanoma and in the assay on MDA-MB-231 breast was above 10 µM each time. Further, the TGI with CCRF-CEM leukemia, with SNB-75 CNS, in the assay with K-562 leukemia and in the assay with BT-549 breast was above 10 µM each time.
As for `CC1OC2OC3C(OCC(O)C3O)OC(=O)[C@]34CCC(C)(C)CC3C3=CCC5[C@@]6(C)C[C@H](O)[C@H](OC7OC(CO)C(O)C(O)C7OC7OCC(OC(=O)CC(C)(O)CC(=O)OC1C(O)C2O)C(O)C7O)[C@@](C)(CO)C6CC[C@@]5(C)[C@]3(C)CC4` (some centres undefined), the TGI was found to be 6.72 µM in the assay on PC-3 prostate; 12 µM in the assay on NCI-H522 lung; 17.7 µM in the assay with RPMI-8226 leukemia; 9.2 µM in the assay on SF-268 CNS; 18.8 µM with SK-MEL-2 melanoma; 20.6 µM in the assay on MDA-MB-231 breast. The figures for the TGI with CCRF-CEM leukemia, with SNB-75 CNS and with BT-549 breast were 24 µM, 18.4 µM and 24.8 µM, respectively.
Turning to `O=C(O)[C@H](CCC[C@H]1C(=O)O[C@H](c2ccccc2)[C@H](c2ccccc2)N1C(=O)OCc1ccccc1)N[C@@H](c1ccccc1)[C@H](O)c1ccccc1`, the TGI is above 100 µM with PC-3 prostate; 38.6 µM with NCI-H522 lung; 54 µM in the assay on RPMI-8226 leukemia; above 100 µM in the assay on SF-268 CNS; 40.8 µM with SK-MEL-2 melanoma; 33.1 µM with MDA-MB-231 breast. The TGI is 46.4 µM in the assay on CCRF-CEM leukemia, 55.1 µM in the assay with SNB-75 CNS, above 100 µM with K-562 leukemia and 78.9 µM with BT-549 breast.
On to `OC1(c2ccc(Cl)cc2)c2ccccc2-c2nc3ccccc3n21` (centres undefined), for which the TGI in the assay with PC-3 prostate, in the assay on NCI-H522 lung, with RPMI-8226 leukemia, in the assay on SF-268 CNS, in the assay on SK-MEL-2 melanoma and in the assay on MDA-MB-231 breast was above 100 µM in each case. Further, the TGI with CCRF-CEM leukemia, in the assay on SNB-75 CNS, in the assay with K-562 leukemia and in the assay with BT-549 breast was above 100 µM throughout.
